Key:
[1] = system: neural stem and progenitor cells in the adult hippocampal neurogenic niche; assay: In vivo neurogenesis study: neural stem cell proliferation (CldU) after oral dosing; design: species or system C57BL/6J mice; conditions: 3 mg/kg oral gavage daily for 5 days; CldU labelling; FIG. 11
Experimental: Small Molecule Oral Gavage Delivery and Chloro-Deoxyuridine (CldU) Injections. Small molecule candidates (3 mg/kg of animal) were delivered through oral gavage to animals (N=3-4) each day at the same time for 5 consecutive days. On the final day, animals received four consecutive IP injections of CldU (85 mg/kg dissolved in sterile saline) 2 hr apart.
Immunohistochemistry. Animals were anesthetized and perfused transcardially with 30 ml of phosphate buffered saline (PBS) followed by 30 ml of 4% (w/v) ice cold paraformaldehyde (PFA) in PBS. Brains were post fixed in 4% PFA solution overnight at 4° C. PFA was replaced with PBS and tissues were kept at 4° C. for further use. Free floating serial sagittal sections of 50 μm thickness were cut using Vibratome 1500 sectioning system and collected in 5 parallel sets each containing 14 sections 250 μm apart from each other. […] Following initial permeabilization and blocking at room temperature (RT) for 2 hrs, sections were incubated with primary antibodies overnight at 4° C. Sections were then washed three times and incubated with fluorochrome-conjugated secondary antibodies for 2 hrs at RT. Sections were washed three times with PBS and mounted on slides with DakoCytomation Fluorescent Mounting Medium (DakoCytomation, Carpinteria, CA) as anti-fading agent.
Sections were counterstained with DAPI (5 μg/mL, Sigma) at 1:1000.
Confocal microscopy and stereology. Quantification and characterization of proliferating cell types was performed according to previously described optical dissector methods. […] An observer blind to experimental groups counted immunoreactive cells that had the mentioned properties below in every fifth sagittal section throughout the dentate gyrus. Neural stem cells were identified according to their triangular Sox2^+ nuclei located in SGZ with a GFAP^+ radial process spanning through granule cell layer.
For quantification that required analysis of phenotypic morphology and/or overlapping markers, 20 μm thick sections were scanned with confocal microscope (Zeiss LSM 710). 3D reconstruction and orthogonal views were acquired via ZEN2012 SP1 software (Zeiss, Thornwood, NY). Cells in the uppermost focal plane were excluded from the quantification. Total counts from 14 sections were multiplied by 10 to get the total number of cells in two dentate gyri. The ratio of CldU^+ cells among a certain cell type was calculated by dividing the CldU^+ cells by the total number of cells in that cell type.
Statistics. Statistical analysis was performed using GraphPad Prism 8.0 (GraphPad RRID:SCR_002798). Experiments involving 2 groups were compared using un-paired Student t-test. […]

TLX LBD = TLX LBD (Homo sapiens (Human), UniProt Q9Y466); assay: ALPHA screen assay for TLX LBD and coactivator peptide recruitment; format: biochemical; conditions: for Normalized fold increase at 200 μM: Table 2; for EC50 / Average ALPHA signal at 200 μM (std. dev.): Table 3; for Average ALPHA signal at 200 μM (std. dev.): mean (std. dev.)
Experimental: Assays were performed according to the manufacturer's protocol (PerkinElmer, USA), with the following modifications: Ligands were tested for TLX-coactivator binding in 50 mM phosphate buffer, 150 mM NaCl, pH 7, 1 mM DTT and 100 μM CHAPS. Ligands were dissolved and diluted in DMSO as stocks and were prepared in assay buffer from the original stock in the 100% DMSO and added to the assay plate. Biotinylated SRC peptide and polyhistidine tagged TLX LBD were diluted in assay buffer, subsequently added to respective ALPHA beads, under low light. The plates were spun down, mixed with a shaker and incubated for 120 minutes and read on a TECAN Plate reader using the manufacturer's protocol.

human brain organoids = assay: TLX agonist activity in human brain organoids (RNA expression of NSC and immature neuron genes); format: cell-based; conditions: 25 μM for 3 days, organoids at 68 days; compared to controls; FIG. 13
Description: Human induced pluripotent cells (iPSCs) were used to generate brain organoids using a modified Pasca protocol as previously described. See, Manganas, et al. (Sci Rep […], 11: 5546) and Pasca, et al. (Nat. Methods 2015, 12: 671-678), which are incorporated herein by reference. Within 2 months, the protocol produces organoids with a variety of cell types that mimic early human brain (neural stem cells, progenitors, different types of neurons at different maturation stage, astrocytes, oligodendrocytes). About 300 organoids can be generated per batch and thus the model provides for testing of different experimental paradigms in the same batch. Organoids were treated at 68-days with 25 μM of reference compound 29, test compounds 95 and […]), or vehicle (0.03N HCl) for 3 days, after which they were processed to examine the expression of NSC genes (PAX6, BLBP) and immature neuron genes (PROM1, DCX).

Chain of TLX LBD (Q9Y466 155-383): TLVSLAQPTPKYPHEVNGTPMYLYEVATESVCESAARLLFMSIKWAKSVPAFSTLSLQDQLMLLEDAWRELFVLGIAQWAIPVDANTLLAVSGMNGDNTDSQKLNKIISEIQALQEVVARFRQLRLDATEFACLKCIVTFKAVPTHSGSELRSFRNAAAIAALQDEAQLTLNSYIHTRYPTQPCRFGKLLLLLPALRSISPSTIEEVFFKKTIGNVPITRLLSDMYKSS

Compound	cell proliferation of neural stem and progenitor cells in the adult hippocampal neurogenic niche [1]	Normalized fold increase at 200 μM (TLX LBD) [X]	EC50 (TLX LBD) [nM]	Average ALPHA signal at 200 μM (std. dev.) (TLX LBD)	expression of NSC genes (PAX6, BLBP) and immature neuron genes (PROM1, DCX) (human brain organoids)
CC(C)CCNc1ncccc1C(=O)N1CCN(Cc2ccccc2)[C@H](C)C1 [Compound 1, (R)-(4-benzyl-3-methylpiperazin-1-yl)(2-(isopentylamino)pyridin-3-yl)methanone]	increase in cell proliferation	1.97	0.0853	1.97 (0.07)	–
CC(C)CCNc1ncccc1C(=O)N1CCN(Cc2ccccc2)[C@@H](C)C1 [Compound 2, (S)-(4-benzyl-3-methylpiperazin-1-yl)(2-(isopentylamino)pyridin-3-yl)methanone]	increase in cell proliferation	2.45	0.0637	2.45 (0.05)	–
CC(C)CCNc1ncccc1C(=O)N1CCN(Cc2ccccc2)C[C@H]1C [Compound 3, (R)-(4-benzyl-2-methylpiperazin-1-yl)(2-(isopentylamino)pyridin-3-yl)methanone]	increase in cell proliferation	2.49	0.0281	2.49 (0.12)	–
CC(C)CCNc1ncccc1C(=O)N1CCN(Cc2ccccc2)C[C@@H]1C [Compound 4, (S)-(4-benzyl-2-methylpiperazin-1-yl)(2-(isopentylamino)pyridin-3-yl)methanone]	increase in cell proliferation	2.29	0.0298	2.29 (0.09)	–
CC(C)CCNc1ncccc1C(=O)N1CCN(Cc2ccccc2)CC1 [Compound 29, (4-benzylpiperazin-1-yl)(2-(isopentylamino)pyridin-3-yl)methanone, reference compound]	–	–	0.0361	2.52 (0.09)	did not lead to a substantial difference in gene expression
CC(C)CCNc1ncccc1C(=O)N1C[C@@H](C)N(Cc2ccccc2)C[C@H]1CC(=O)O [Compound 83]	–	–	–	1.02 (0.03)	–
CC(C)CCNc1ncccc1C(=O)N1C[C@@H](C)N(Cc2ccccc2)C[C@@H]1CC(=O)O [Compound 84]	–	–	–	1.09 (0.01)	–
CC(C)Nc1ncccc1C(=O)N1CCN(Cc2ccccc2)[C@H](C)C1 [Compound 85]	–	–	–	1.48 (0.16)	–
C[C@@H]1CN(C(=O)c2cccnc2NC2CC2)CCN1Cc1ccccc1 [Compound 86]	–	–	–	1.35 (0.04)	–
CC(C)CNc1ncccc1C(=O)N1CCN(Cc2ccccc2)[C@H](C)C1 [Compound 87]	–	–	–	2.07 (0.03)	–
CNc1ncccc1C(=O)N1CCN(Cc2ccccc2)[C@H](C)C1 [Compound 88]	–	–	–	2.17 (0.21)	–
CC(C)CNc1ncccc1C(=O)N1CCN(Cc2ccccc2)[C@@H](C)C1 [Compound 89]	–	–	–	1.98 (0.05)	–
CC(C)Nc1ncccc1C(=O)N1CCN(Cc2ccccc2)[C@@H](C)C1 [Compound 90]	–	–	–	1.57 (0.06)	–
C[C@H]1CN(C(=O)c2cccnc2NC2CC2)CCN1Cc1ccccc1 [Compound 91]	–	–	–	1.48 (0.04)	–
CNc1ncccc1C(=O)N1CCN(Cc2ccccc2)[C@@H](C)C1 [Compound 92]	–	–	–	1.85 (0.10)	–
CC(C)CCNc1ncccc1C(=O)N1CCN(Cc2ccccc2)C[C@H]1CC(C)C [Compound 93]	–	–	–	3.46 (0.10)	–
CC(C)CCNc1ncccc1C(=O)N1CCN(Cc2ccccc2)C[C@@H]1CC(C)C [Compound 94]	–	–	0.003	3.65 (0.10)	–
CC(C)CCNc1ncccc1C(=O)N1CCN(Cc2ccccc2)C[C@H]1Cc1ccccc1 [Compound 95]	–	–	–	2.37 (0.19)	substantially increased the expression levels of tested genes
CC(C)CCNc1ncccc1C(=O)N1CCN(Cc2ccccc2)C[C@@H]1Cc1ccccc1 [Compound 96]	–	–	0.00315	2.41 (0.07)	substantially increased the expression levels of tested genes

Source: patent publication US20240067625A1, “SMALL-MOLECULE MODULATORS OF THE ORPHAN NUCLEAR RECEPTOR TLX” (priority 2020, published 2024)
